# Experimental data as given in US20200338158A1, “Therapeutic Drug for Non-Alcoholic Fatty Liver Disease” (Shanghai Hep Pharmaceutical Co., Ltd., priority 2017, published 2020).
# Tests used:
# Format in all cases: in vivo
# C57BL6 mice [1] = test: Mouse NASH model, overall conclusions at week 8 and week 16
# Source text: (§1) In this example, a mouse nonalcoholic steatohepatitis (NASH) model was used to evaluate the effect of hepalatide (L47) on pathological changes and metabolism level of NASH, and to determine whether L47 can improve the pathological changes of NASH, so as to provide reference for pharmacodynamic evaluation of L47 before clinical treatment.
# 4.1.1 Normal control group (Control): common block feed+common water, 14 mice in total, wherein 6 mice were sacrificed at week 8, and 8 mice were sacrificed at week 16.
# 4.1.2 Model group (HFC-F/G): high fat feed+high sugar water, 9 mice in total, wherein 3 mice were sacrificed at week 8, and 6 mice were sacrificed at week 16.
# 4.1.3 Low dose group 1 (HFC-F/G+HL1): high fat feed+high sugar water+L47 20 mg/kg (10 mg/kg*2/d, i.e. once in the morning and once in the afternoon), 10 mice in total, wherein 3 mice were sacrificed at week 8, and 7 mice were sacrificed at week 16.
# 4.1.4 High dose group 1 (HFC-F/G+HH1): high fat feed+high sugar water+L47 60 mg/kg (30 mg/kg*2/d, i.e. once in the morning and once in the afternoon), 10 mice in total, wherein 3 mice were sacrificed at week 8, and 7 mice were sacrificed at week 16.
# 4.1.5 Low dose group 2 (HFC-F/G+HL2): high fat feed+high sugar water+L47 20 mg/kg (10 mg/kg*2/d, i.e. once in the morning and once in the afternoon, with pharmacologic intervention started 8 weeks after initiation of the experiment), 5 mice in total, which are sacrificed after 16 weeks.
# 4.1.6 High dose group 2 (HFC-F/G+HH2): high fat feed+high sugar water+L47 60 mg/kg (30 mg/kg*2/d, i.e. once in the morning and once in the afternoon, with pharmacologic intervention started 8 weeks after initiation of the experiment), 5 mice in total, which are sacrificed after 16 weeks.
# The concentration of L47 in low dose group was 5 mg/ml; the concentration of L47 in high dose group was 10 mg/ml.
# Route of administration: subcutaneous injection.
# C57BL6 mice [2] = test: Liver histology (HE, Oil Red O, Masson, TUNEL staining), mouse NASH model; conditions: for liver Masson staining (fibrous cords) / liver Oil Red O staining (fat accumulation) / liver Masson staining (fibrous depositions): vs model group
# Procedure: as §1
# At week 8 and week 16, hematoxylin eosin (HE) staining, trichrome staining (Masson staining), Oil Red 0 staining and apoptosis (TUNEL) staining were performed on the liver tissue sections of mice.
# C57BL6 mice [3] = test: Body weight and general observation of abdominal fat, mouse NASH model
# Source text: as §1
# Each experimental group was provided with sufficient feed and water daily with free diet, and water was changed twice a week for sugar water-added group, and the remaining amount of feed was weighed and added to 150 g each week for each group in addition to the normal control group, and body weight of mice was weighed each week for each group.
# At week 8 and week 16, liver was separated by dissection after anesthesia and blood collection, and pathological changes of liver tissues and accumulation of abdominal fat were grossly observed by the naked eye.
# [4] = overall conclusion, week 8 and week 16
# [5] = overall conclusion, effect better as dose and administration duration increased
# [6] = overall conclusion, in a short period of time, dose-dependent
# [7] = week 8, treatment groups (HL1, HH1)
# [8] = week 16, HH1 (L47 30 mg/kg*2/d s.c. from start)
# [9] = week 16, HH2 (L47 30 mg/kg*2/d s.c., started after 8 weeks)
# [10] = week 16, HL1 (L47 10 mg/kg*2/d s.c. from start)
# [11] = week 16, HL2 (L47 10 mg/kg*2/d s.c., started after 8 weeks)
substance,measurement,setting,value
hepalatide [L47],"levels of ALB, HDL and LDL",C57BL6 mice [1]; [4],reduce
same,levels of VLDL and ALP,C57BL6 mice [1]; [4],no effect
same,blood glucose and insulin level,C57BL6 mice [1]; [5],effectively reduce
same,insulin resistance,C57BL6 mice [1]; [5],improve
same,apoptosis (liver),C57BL6 mice [1]; [6],improve
same,fibrosis degree of liver,C57BL6 mice [1]; [6],effectively reduce
same,levels of ALT and AST,C57BL6 mice [1]; [6],effectively reduce
same,"subcutaneous fat, liver fat and serum fat deposition","C57BL6 mice [1]; overall conclusion, in a short period of time, dose-dependent, improvement reduced as treatment duration extended",effectively reduce
same,"liver fat accumulation, liver cell damage, insulin resistance and liver fibrosis","C57BL6 mice [1]; short-term (8 weeks) co-administration or delayed administration, to various degrees",improve
same,"liver HE staining (fat vacuoles, inflammatory cells)","C57BL6 mice [2]; week 8, low and high dose groups (HL1, HH1)","only less and smaller fat vacuoles were formed, with less inflammatory cells"
same,liver Oil Red O staining (fat droplet vacuoles),C57BL6 mice [2]; [7],only smaller and less vacuoles
same,liver TUNEL staining (apoptosis),C57BL6 mice [2]; [7],effectively improved
same,TUNEL semi-quantitative counting (number of apoptotic bodies),"C57BL6 mice [2]; week 8, treatment groups (HL1, HH1) vs model group, p<0.001, p<0.001",significantly decreased
same,"liver HE staining (steatosis, inflammatory cell infiltration)",C57BL6 mice [2]; [8],severe steatosis
same,liver TUNEL staining (apoptosis),C57BL6 mice [2]; [8],no improvement
same,liver TUNEL staining (apoptosis),C57BL6 mice [2]; [9],effectively improved
same,TUNEL semi-quantitative counting (number of apoptotic bodies),"C57BL6 mice [2]; week 16, HH2 (L47 30 mg/kg*2/d s.c., started after 8 weeks), p<0.01",significantly decreased
same,liver TUNEL staining (apoptosis),C57BL6 mice [2]; [10],no improvement
same,liver TUNEL staining (apoptosis),C57BL6 mice [2]; [11],effectively improved
same,TUNEL semi-quantitative counting (number of apoptotic bodies),"C57BL6 mice [2]; week 16, HL2 (L47 10 mg/kg*2/d s.c., started after 8 weeks), p<0.01",significantly decreased
same,"liver HE staining (steatosis, inflammatory response)","C57BL6 mice [2]; week 16, other groups (HL1, HL2, HH2)",slight steatosis and inflammatory response
same,liver Masson staining (fibrous cords),C57BL6 mice [2]; [8],no significant difference
same,liver Oil Red O staining (fat accumulation),C57BL6 mice [2]; [8],only slightly reduced
same,liver Masson staining (fibrous depositions),C57BL6 mice [2]; [9],decreased
same,liver Oil Red O staining (fat accumulation),C57BL6 mice [2]; [9],significantly reduced
same,liver Masson staining (fibrous cords),C57BL6 mice [2]; [10],no significant difference
same,liver Oil Red O staining (fat accumulation),C57BL6 mice [2]; [10],only slightly reduced
same,liver Masson staining (fibrous depositions),C57BL6 mice [2]; [11],decreased
same,liver Oil Red O staining (fat accumulation),C57BL6 mice [2]; [11],significantly reduced
same,body weight,"C57BL6 mice [3]; week 8, L47 treatment groups vs model group",significantly decreased
same,abdominal fat deposition (general observation),"C57BL6 mice [3]; week 8, treatment groups",significant effect
same,abdominal fat deposition (general observation),"C57BL6 mice [3]; week 16, among each group",no significant difference
same,body weight,"C57BL6 mice [3]; week 16, low dose group 2",decrease
same,body weight,"C57BL6 mice [3]; week 16, treatment groups except low dose group 2, vs model group",no significant difference
